Patent US7491827B2, “Aryl sulfonamides useful as inhibitors of chemokine receptor activity” (Millennium Pharmaceuticals, Inc., priority 2003, dated 2009)

Target: T1, cloned human CCR8 receptor stably expressed in L1.2 cells (Homo sapiens, UniProt P51685)
T1 construct: expressed in transfected cells
Assay: whole cell binding screen: inhibition of biotinylated human I309 binding to CCR8 (FMAT 8100 HTS)
Details: Ki of compounds to inhibit I-309 binding to CCR8, L1.2/hCCR8 cells, biotinylated human I-309, 10 point concentration response starting at 10 μM
Description: This whole cell binding screen evaluates the ability of compounds to inhibit biotinlyated human I309 binding to the cloned human CCR8 receptor stably expressed in L1.2 cells. Human CCR8 gene was amplified by PCR using PFU polymerase under standard conditions from human genomic DNA purchased from Stratagene. The PCR primers used were:
The 5′ and 3′ primers contained flanking enzyme sites (Bam Hi and Not 1,respectively), which were used to subclone the gene into pcDNA3.1. […] The CCR8 vector was then transfected into L1.2 cells (murine pre-B cells) by electroporation.
Compounds were screened using the FMAT™ 8100 HTS System (purchased from Applied Biosystems).
A suspension was prepared of L1.2/hCCR8 cells at 4.0×10^5 cells/mL in a binding buffer (Buffer consisting of Hanks Balanced Salt Solution (without phenol red), 10 mM HEPES, 0.1% Fatty Acid Free BSA, 0.02% Sodium Azide).
Dilution series of 10 mM stock concentrations of the test compounds were prepared in DMSO and further diluted into binding buffer defined above) to three times the final assay concentration.
10 point concentration response curve is constructed for each compound, starting at 10 μM (final assay concentration in Binding Buffer). […] The components were mixed in wells by covering the plate with aluminum foil and rotating for 0.5 hours. […] Average fluorescence reported for each concentration was normalized to percent inhibition based on negative (no inhibitor) and positive (100 nM excess unlabeled I309 (R and D Systems)) controls.

T1 sequence (P51685 whole entry): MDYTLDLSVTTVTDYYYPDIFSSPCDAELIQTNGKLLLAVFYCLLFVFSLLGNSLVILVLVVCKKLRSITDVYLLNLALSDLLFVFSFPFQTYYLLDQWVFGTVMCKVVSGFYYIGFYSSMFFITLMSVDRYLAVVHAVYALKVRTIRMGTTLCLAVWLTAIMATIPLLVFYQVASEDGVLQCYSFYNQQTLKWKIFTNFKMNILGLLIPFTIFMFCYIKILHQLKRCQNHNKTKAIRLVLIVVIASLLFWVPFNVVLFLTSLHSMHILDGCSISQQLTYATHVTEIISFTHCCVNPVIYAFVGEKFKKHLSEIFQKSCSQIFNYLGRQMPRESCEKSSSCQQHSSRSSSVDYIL

| Compound | Ki [µM] |
| --- | --- |
| O=C(Nc1ccc(S(=O)(=O)Nc2ccccc2)c2ccccc12)c1ccccc1 [Compound A-7, N-(4-Phenylsulfamoyl-naphthalen-1-yl)-benzamide] | < 1 |
| Cc1ccccc1C(=O)Nc1ccc(S(=O)(=O)NC2CCN(C(=O)C(C)C)CC2)c2ccccc12 [Compound C-51, N-[4-(1-Isobutyryl-piperidin-4-ylsuffamoyl)-naphthalen-1-yl]-2-methyl-benzamide] | < 0.5 |
| Cc1ccccc1C(=O)Nc1ccc(S(=O)(=O)NC2CCN(C(=O)CN)CC2)c2ccccc12 [Compound C-122, N-{4-[1-(2-Amino-acetyl)-piperidin-4-ylsulfamoyl]-naphthalen-1-yl}-2-methyl-benzamide] | < 0.5 |
| CCNC(=O)N1CCC(NS(=O)(=O)c2ccc(C(=O)Nc3ccccc3C)c3ccccc23)CC1 [Compound F-10, 4-(4-o-Tolylcarbamoly-naphthalene-1-sulfonylamino)-piperidine-1-carboxylic acid ethylamide] | < 0.5 |

Same assay, conditions: L1.2/hCCR8 cells, biotinylated human I-309, 10 point concentration response starting at 10 μM; read-out: Ki of compounds to inhibit I-309 binding to CCR8

| Compound | Ki [µM] |
| --- | --- |
| CC[C@H](N)C(=O)N1CCC(NS(=O)(=O)c2ccc(NC(=O)c3ccccc3C)c3ccccc23)CC1 [Compound C-126, (S)-N-{4-[1-(2-Amino-butyryl)-piperidin-4-ylsulfamoyl]-naphthalen-1-yl}-2-methyl-benzamide] | < 0.5 |
| Cc1ccccc1C(=O)Nc1ccc(S(=O)(=O)NC2CCN(c3nc4ccccc4o3)CC2)c2ccccc12 [Compound C-60, N-[4-(1-Benzooxazol-2-yl-piperidin-4-ylsulfamoyl)-naphthalen-1-yl]-2-methyl-benzamide] | < 0.5 |
| CCOC(=O)N1CCC(NS(=O)(=O)c2ccc(CNCc3ccncc3)c3ccccc23)CC1 [Compound G-15, 4-(4-{[(Pyridin-4-ylmethyl)-ainno]-methyl}-naphthalene-1-sulfonylamino)-piperidine-1-carboxylic acid ethyl ester] | < 1 |
| Cc1ccccc1C(=O)Nc1ccc(S(=O)(=O)NC2CCNC2)c2ccccc12 (racemic) [Compound C-48, (±)-2-Methyl-N-[4-(pyrrolidin-3-ylsulfamoyl)-naphthalen-1-yl]-benzamide] | < 0.5 |
| Cc1ccccc1C(=O)Nc1cccc2c(S(=O)(=O)NC3CCN(C(=O)N4CCOCC4)CC3)cccc12 [Compound H-11, 2-Methyl-N-{5-[1-(morpholine-4-carbonyl)-piperidin-4-ylsulfamoyl]-naphthalen-1-yl}-benzamide] | < 0.5 |
| CC(C)(C)OC(=O)N1CCC(NS(=O)(=O)c2ccc(NC(=O)c3ccccc3)c3ccccc23)C1 (stereo not drawn) [Compound A-37, 3-(4-Benzoylamino-naphthalene-1-sulfonylamino)-pyrrolidine-1-carboxylic acid tert-butyl ester] | < 0.5 |
| CCCC(=O)N1CCC(NS(=O)(=O)c2cccc3c(C(=O)Nc4ccccc4C)cccc23)CC1 [Compound H-39, 5-(1-Butyryl-piperidin-4-ylsulfamoyl)-naphthalene-1-carboxylic acid o-tolylamide] | < 0.5 |
| CCCC(=O)N1CCC(NS(=O)(=O)c2ccc(C(=O)Nc3ccccc3)c3ccccc23)CC1 [Compound F-25, 4-(1-Butyryl-piperidin-4-ylsulfamoyl)-naphthalene-1-carboxylic acid phenylamide] | < 0.5 |
| O=C(Nc1ccccc1Cl)c1ccc(S(=O)(=O)NC2CCNCC2)c2ccccc12 [Compound F-17, 4-(Piperidin-4-ylsulfamoyl)-naphthalene-1-carboxylic acid (2-chloro-phenyl)-amide] | < 30 |
| CC(C)NS(=O)(=O)c1ccc(NC(=O)c2ccccc2)c2ccccc12 [Compound A-11, N-(4-Isopropylsulfamoyl-naphthalen-1-yl)-benzamide] | < 30 |
| CCCC(=O)N1CCC(NS(=O)(=O)c2cccc3c(C(=O)NC4CCCC(C)C4C)cccc23)CC1 (racemic) [Compound H-31, (±)-5-(1-Butyryl-piperidin-4-ylsulfamoyl)-naphthalene-1-carboxylic acid (2,3-dimethyl-cyclohexyl)-amide] | < 0.5 |
| Cc1ccccc1C(=O)Nc1ccc(S(=O)(=O)N[C@H]2CCNC[C@@H]2CC(C)C)c2ccccc12 [Compound J-56] | < 5 |
| CCCC(=O)N1CC[C@H](NS(=O)(=O)c2ccc(NC(=O)c3ccccc3C)c3ccccc23)[C@H](C(=O)O)C1 (racemic) [Compound C-78, (±)-(cis)-1-Butyryl-4-[4-(2-methyl-benzoylamino)-naphthalene-1-sulfonylamino]-piperidine-3-carboxylic acid] | < 30 |
| Cc1ccccc1C(=O)Nc1ccc(S(=O)(=O)NCCCN2CCCC2=O)c2c1CCCC2 [Compound E-24, 2-Methyl-N-{4-[3-(2-oxo-pyrrolidin-1-yl)-propylsulfamoyl]-5,6,7,8-tetrahydro-naphthalen-1-yl}-benzamide] | < 1 |
| CN1CCC(C(=O)Nc2ccc(S(=O)(=O)NC3CCN(C(=O)OC(C)(C)C)CC3)c3ccccc23)CC1 [Compound B-21, 4-{4-[(1-Methyl-piperidine-4-carbonyl)-amino]-naphthalene-1-sulfonylamino}-piperidine-1-carboxylic acid tert-butyl ester] | < 30 |
| Cc1ccccc1C(=O)Nc1ccc(S(=O)(=O)N[C@@H]2[C@H](C)CN(C(=O)N(C)C)C[C@@H]2C)c2ccccc12 [Compound C-71, (±)-(cis,cis)-3,5-Dimethyl-4-[4-(2-methyl-benzoylamino)-naphthalene-1-sulfonylamino]-piperidine-1-carboxylic acid dimethylamide] | < 1 |
| CC(C)c1ccc(NS(=O)(=O)c2ccc(NC(=O)c3ccccc3)c3ccccc23)cc1 [Compound A-28, N-[4-(4-Isopropyl-phenylsulfamoyl)-naphthalene-1-yl]-benzamide] | < 0.5 |
| CC(C)(C)OC(=O)N1CCC(NS(=O)(=O)c2ccc(C(=O)NC3CCOCC3)c3ccccc23)CC1 [Compound F-15, 4-[4-(Tetrahydro-pyran-4-ylcarbamoyl)-naphthalene-1-sulfonylamino]-piperidine-1-carboxylic acid tert-butyl ester] | < 30 |
| O=C(Nc1ccc(S(=O)(=O)NC2CCNCC2)c2ccccc12)c1ccccc1F [Compound C-99, 2-Fluoro-N-[4-(piperidin-4-ylsulfamoyl)-naphthalen-1-yl]-benzamide] | < 0.5 |
| Cc1ccccc1C(=O)Nc1cccc2c(S(=O)(=O)N[C@H]3CCN(C(=O)CN(C)C)C[C@H]3C)cccc12 (racemic) [Compound K-1, (±)-(cis)-N-{5-[1-(2-Dimethylamino-acetyl)-3-methyl-piperidin-4-ylsulfamoyl]-naphthalen-1-yl}-2-methyl-benzamide] | < 0.5 |
| CCOC(=O)N1CCC(NS(=O)(=O)c2ccc(NC(=O)c3ccccc3C)c3c2CCC3)CC1 [Compound H-64, 4-[7-(2-Methyl-benzoylamino)-indane-4-sulfonylamino]-piperidine-1-carboxylic acid ethyl ester] | < 0.5 |
| CCOC(=O)N1C[C@H](C)C(NS(=O)(=O)c2ccc(NC(=O)c3ccccc3C)c3ccccc23)[C@@H](C)C1 (racemic) [Compound C-67, (±)-(cistrans)-3,5-Dimethyl-4-[4-(2-methyl-benzoylamino)-naphthalene-1-sulfonylamino]-piperidine-1-carboxylic acid ethyl ester] | < 0.5 |
| Cc1ccccc1C(=O)Nc1ccc(S(=O)(=O)NC2CCNCC2)c2c1CCC2 [Compound H-67, 2-Methyl-N-[7-(piperidin-4-ylsulfamoyl)-indan-4-yl]-benzamide] | < 1 |
